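Protocol summary: plate cells (96-well), add compound at 5 concentrations, incubate 48 h, interpolate endpoints linearly. Abbreviation: GI50, concentration required for 50% inhibition of growth.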 Activity calls are given as the source filed them. No stated cut-off is given here; in the data, active = GI50 up to about 1.1 µM and inactive = higher.
Tests used:
Assay in all cases: DTP human tumour cell line panel, 48 h
786-0 = tested on: 786-0
A549 = tested on: A549
EKVX = tested on: EKVX
HL-60 = tested on: HL-60
HOP-92 = tested on: HOP-92
M14 = tested on: M14
MDA-N = tested on: MDA-N
NCI-H522 = tested on: NCI-H522
OVCAR-3 = tested on: OVCAR-3
OVCAR-5 = tested on: OVCAR-5
SF-295 = tested on: SF-295
SF-539 = tested on: SF-539
SK-MEL-28 = tested on: SK-MEL-28
SK-MEL-2 = tested on: SK-MEL-2
SK-MEL-5 = tested on: SK-MEL-5
SK-OV-3 = tested on: SK-OV-3
SNB-75 = tested on: SNB-75
SR = tested on: SR
TK-10 = tested on: TK-10
UACC-257 = tested on: UACC-257

Compound | GI50 (786-0) | GI50 (A549) | GI50 (EKVX) | GI50 (HL-60) | GI50 (HOP-92) | GI50 (M14) | GI50 (MDA-N) | GI50 (NCI-H522) | GI50 (OVCAR-3) | GI50 (OVCAR-5) | GI50 (SF-295) | GI50 (SF-539) | GI50 (SK-MEL-28) | GI50 (SK-MEL-2) | GI50 (SK-MEL-5) | GI50 (SK-OV-3) | GI50 (SNB-75) | GI50 (SR) | GI50 (TK-10) | GI50 (UACC-257)
CC1=C(/C=C/C(C)=C/C=C/C(C)=C/C(=O)O)C(C)(C)CCC1 [TRETINOIN] | 49.9 µM (inactive) | 39.9 µM (inactive) | > 100 µM (inactive) | 18 µM (inactive) | > 63.8 µM (inactive) | 49.4 µM (inactive) | 45.8 µM (inactive) | 56.9 µM (inactive) | 46.6 µM (inactive) | > 68.5 µM (inactive) | 54.8 µM (inactive) | 48.6 µM (inactive) | 53.8 µM (inactive) | 28.9 µM (inactive) | 47.8 µM (inactive) | > 71.8 µM (inactive) | > 61.9 µM (inactive) | 47 µM (inactive) | 71.8 µM (inactive) | 62.4 µM (inactive)
Cc1ccc(S(=O)(=O)N2c3ccccc3[C@H]3CCC=C[C@H]32)cc1 | 13.2 µM (inactive) | 6.75 µM (inactive) | 12.1 µM (inactive) | 4.58 µM (inactive) | 3.16 µM (inactive) | 5.5 µM (inactive) | 3.06 µM (inactive) | 1.29 µM (inactive) | 4 µM (inactive) | 41.3 µM (inactive) | 3.91 µM (inactive) | 9.42 µM (inactive) | 10.9 µM (inactive) | 4.58 µM (inactive) | 7.4 µM (inactive) | 2.54 µM (inactive) | 5.05 µM (inactive) | 3.03 µM (inactive) | 13.7 µM (inactive) | 10.1 µM (inactive)
COC(=O)C1=C(C)NC(C)=C(C(=O)OC)C1c1ccc(/[N+]([O-])=C/c2ccccc2)cc1 | 17.3 µM (inactive) | 96.6 µM (inactive) | 71.6 µM (inactive) | 15.1 µM (inactive) | 20.8 µM (inactive) | 18.1 µM (inactive) | 34.4 µM (inactive) | 14.6 µM (inactive) | 18.9 µM (inactive) | > 100 µM (inactive) | 46.9 µM (inactive) | > 100 µM (inactive) | 18.7 µM (inactive) | > 100 µM (inactive) | > 100 µM (inactive) | > 100 µM (inactive) | 34.9 µM (inactive) | 24.1 µM (inactive) | 92.9 µM (inactive) | 29.6 µM (inactive)
c1ccc(Cn2c(-c3ccc(-c4ccccc4)cc3)cc3ccccc32)cc1 | > 100 µM (inactive) | > 100 µM (inactive) | > 100 µM (inactive) | > 100 µM (inactive) | > 100 µM (inactive) | > 100 µM (inactive) | > 100 µM (inactive) | 28.2 µM (inactive) | > 100 µM (inactive) | > 100 µM (inactive) | > 100 µM (inactive) | > 100 µM (inactive) | > 100 µM (inactive) | 94.6 µM (inactive) | > 100 µM (inactive) | > 100 µM (inactive) | 58.1 µM (inactive) | > 100 µM (inactive) | > 100 µM (inactive) | > 100 µM (inactive)
N#Cc1ccc(Nc2nc3[nH]cnc3c(=O)[nH]2)cc1 | > 100 µM (inactive) | > 100 µM (inactive) | > 100 µM (inactive) | > 100 µM (inactive) | > 100 µM (inactive) | > 100 µM (inactive) | > 100 µM (inactive) | > 100 µM (inactive) | > 100 µM (inactive) | > 100 µM (inactive) | > 100 µM (inactive) | > 100 µM (inactive) | > 100 µM (inactive) | > 100 µM (inactive) | > 100 µM (inactive) | > 100 µM (inactive) | > 100 µM (inactive) | > 100 µM (inactive) | > 100 µM (inactive) | > 100 µM (inactive)
CC(=O)Nc1ccc(S(=O)(=O)c2nnc(NC(C)=O)s2)cc1 | > 100 µM (inactive) | > 100 µM (inactive) | > 100 µM (inactive) | > 100 µM (inactive) | > 100 µM (inactive) | > 100 µM (inactive) | > 100 µM (inactive) | > 100 µM (inactive) | > 100 µM (inactive) | > 100 µM (inactive) | 25.5 µM (inactive) | > 100 µM (inactive) | > 100 µM (inactive) | > 100 µM (inactive) | > 100 µM (inactive) | > 100 µM (inactive) | > 100 µM (inactive) | > 100 µM (inactive) | > 100 µM (inactive) | > 100 µM (inactive)
O=C1Nc2ccccc2S/C1=C\c1ccc(C(F)(F)F)cc1 | > 100 µM (inactive) | > 100 µM (inactive) | 55.1 µM (inactive) | > 100 µM (inactive) | > 100 µM (inactive) | > 100 µM (inactive) | > 100 µM (inactive) | > 100 µM (inactive) | > 100 µM (inactive) | > 100 µM (inactive) | > 100 µM (inactive) | > 100 µM (inactive) | > 100 µM (inactive) | > 100 µM (inactive) | > 100 µM (inactive) | > 100 µM (inactive) | 37.1 µM (inactive) | > 100 µM (inactive) | > 100 µM (inactive) | > 100 µM (inactive)
Nc1nc2c(ncn2C2CCC(CO)O2)c(=O)n1C(=O)c1ccccc1 (stereo not given) | > 100 µM (inactive) | > 100 µM (inactive) | > 100 µM (inactive) | > 100 µM (inactive) | > 100 µM (inactive) | > 100 µM (inactive) | > 100 µM (inactive) | > 100 µM (inactive) | > 100 µM (inactive) | > 100 µM (inactive) | > 100 µM (inactive) | > 100 µM (inactive) | > 100 µM (inactive) | > 100 µM (inactive) | > 100 µM (inactive) | > 100 µM (inactive) | > 74.5 µM (inactive) | 67.3 µM (inactive) | > 100 µM (inactive) | > 100 µM (inactive)
Cc1ccc(OCC2OC(n3cnc4nc(Cl)nc(Cl)c43)CC2Oc2ccc(C)cc2)cc1 (stereo not given) | 5.25 µM (inactive) | 27.3 µM (inactive) | 11.2 µM (inactive) | 0.402 µM (active) | 2.69 µM (inactive) | 6.35 µM (inactive) | 3.74 µM (inactive) | 1.84 µM (inactive) | 6.38 µM (inactive) | 17.2 µM (inactive) | 16.4 µM (inactive) | 5.94 µM (inactive) | 3.65 µM (inactive) | 4.98 µM (inactive) | 16.3 µM (inactive) | 30.3 µM (inactive) | 14.7 µM (inactive) | 1.78 µM (inactive) | 13.8 µM (inactive) | 12.9 µM (inactive)
C#CCNC(=O)NC(CCCCNC(=O)OCc1ccccc1)C(=O)OCc1ccccc1 (stereo not given) | > 95.7 µM (inactive) | > 77.6 µM (inactive) | > 100 µM (inactive) | 16 µM (inactive) | 18.7 µM (inactive) | 22.7 µM (inactive) | 32.9 µM (inactive) | 6.64 µM (inactive) | 62.2 µM (inactive) | > 100 µM (inactive) | > 61 µM (inactive) | 38.9 µM (inactive) | 17.7 µM (inactive) | 16.6 µM (inactive) | 18.3 µM (inactive) | > 100 µM (inactive) | 16.2 µM (inactive) | 34.8 µM (inactive) | 37.6 µM (inactive) | 19.7 µM (inactive)

Source: ChEMBL document CHEMBL1201862, “PubChem BioAssay data set” (2004)
